What was measured:
[1] = system: G93A mutant SOD1 mouse-derived fibroblasts; assay: Real-time qRT-PCR analysis of ALS animal model-derived fibroblasts; assay type: cell-based; details: low or high concentration halofuginone for 24 hours; elevation vs Non-TG fibroblasts (FIG. 5a)
Text: Specifically, primary fibroblasts were isolated from skeletal muscle of 120-day-old non-transformed or G93A mutant SOD1 transgenic mice of Example 4. The excised tissue was placed on 100-mm culture dishes containing HBSS (Hanks' Balanced Salt Solution; Gibco, cat #14175095) and penicillin-streptomycin (Cat #15070-063, Thermo Fisher Scientific) without calcium and magnesium. Muscle tissue was cut on ice blocks. Then, the tissue was cut into 1 mm pieces and enzymatically reacted with 0.2% IV type collagenase (Sigma) at 37° C. for 1 hour. The enzymatic reaction was stopped by the addition of 10 ml of FBS (Gibco). […]
Specifically, total RNA was isolated from C2C12 cells in Example 1, fibroblasts in Example 5, and the lumbar spinal cord of mice in Example 6 using the FavorPrep™ Tri-RNA Reagent (Favorgen). […] The concentration of total RNA was measured at 260 nm absorbance using a spectrophotometer (NanoDrop Spectrophotometer ND-2000, Thermo Scientific). cDNA was synthesized from 1 μg of total RNA using the ReverTra Ace-α™ (Toyobo) according to the manufacturers protocol. Quantitative RT-PCR was performed using the SYBR Green ExcelTaq™ 2× Fast Q-PCR Master Mix (TQ1200, Smobio) on a thermocycler (CFX Connect Real-Time PCR Detection System, BIO-RAD) with the primers listed in Table 3 below. […]

[2] = system: G93A mutant SOD1 transgenic mice; assay: Western blot analysis of knee joint tissue in ALS animal model; assay type: in vivo, mouse; details: 120 days old; compared to DMSO non-TG mice
Procedure: As a control group, non-transgenic mice were injected intraperitoneally (i.p.) with vehicle (DMSO) in the same manner for the same period of time.
Specifically, the lumbar spinal cord or knee joint of the mouse of Example 6 was separated and immediately frozen at −80° C. Each lumbar spinal cord or knee joint was then homogenized and chemically treated to obtain cells. The chemically treated cells, the C2C12 cells of Example 1 or the fibroblasts of Example 5 were dissolved in a RIPA buffer (Thermo, MA, USA) with a protease inhibitor and a phosphatase inhibitor (Roche, IN, USA) and incubated on ice for 30 minutes. After centrifugation of the lysate at 13,000 rpm at 4° C. for 20 min, insoluble substances were removed. Protein concentrations were measured by BCA analysis (Pierce Biotechnology). Equal volumes of cell lysate were loaded onto SDS-PAGE gels for electrophoresis, and transferred onto nitrocellulose membranes (Amersham Protran 0.2 um NC, Amersham Pharmacia Biotech, Piscataway, NJ, USA). The membranes were then blocked with 5% (w/v) skimmilk in 1×TBST for 1 h at room temperature. After blocking, anti-RB-actin antibody (1:5000; Santa Cruz, cat #sc47778), anti-Smad2 antibody (1:1000; Cell Signaling, cat #5339), anti-p-Smad2 antibody (1:1000; Cell Signaling, cat #3108), anti-TGF-β1 antibody (1:1000; Santa Cruz, cat #sc130348), anti-α-SMA antibody (1:10000; abcam cat #ab7817), anti-MyoD antibody (1:1000; cat #sc377460), anti-collagen|antibody (1:1000; abcam cat #ab21286), anti-cleaved caspase-3 antibody (1:1000; Cell Signaling, cat #9661), anti-bax antibody (1:500; Santa Cruz, cat #sc493), anti-bcl2 antibody (1:1000; Novus Biologics, cat #NB100-56098), anti-ChAT antibody (1:1000; Millipore, cat #AB144) were treated and incubated overnight at 4° C. Subsequently, membranes were washed several times with 1×TBST and incubated with horseradish peroxidase-conjugated secondary antibodies (anti-mouse, rabbit or goat, 1:5000; GE Healthcare) in blocking buffer for 1 h at room temperature (RT). The membranes were then washed, briefly incubated with the SuperSignal West Pico Plus Chemical Substructure (Pierce Biotechnology) according to the manufacturer's procedure, and quantified with an image analyzer (Amersham Pharmacia Biotech, Piscataway, NJ, USA). β-actin was used as an internal control group. The concentration measurement of protein intensity was quantified using Image J (National Institutes of Health).
Specifically, halofuginone was administered to G93A mutant SOD1 mice in the same manner as described in Example 6, and ROM measurement of the knee joint was performed in the same manner as described in Example 10 (FIG. 8a). In addition, Western blot analysis was performed in the same manner as the method described in Example 12 using knee joint tissue to confirm p-Smad2, Smad2, TGF-β1, α-SMA, MyoD, and collagen I protein expression (FIG. 8b).

With `O=C(C[C@H]1NCCC[C@@H]1O)Cn1cnc2cc(Br)c(Cl)cc2c1=O` (racemic) [halofuginone] the “elevated mRNA level of TGF-β, α-SMA and Col-I” value [1] was “attenuated”, the “Col-1 expression level in knee joint tissue” value [2] was “rather reduced” and the “MyoD expression level in knee joint tissue” value [2] was “preserved similarly”. For the same compound, the “TGF-β1 expression level in knee joint tissue” value [2] was “preserved similarly”, the “p-Smad2/Smad2 ratio in knee joint tissue” value [2] was “preserved similarly” and the “α-SMA expression level in knee joint tissue” value [2] was “preserved similarly”.
